According to patent US20240360178A1, “MACROCYCLIC IMMUNOMODULATORS” (Bristol-Myers Squibb Company, priority 2021, published 2024):
Positions of bridges follow the written chain, without caps; N, C: chain ends. Non-standard residues stand in square brackets, D forms with d. Residues, ends and D or L forms follow the SMILES beside them. Phe(4-CONH2) = NC(=O)c1ccc(C[C@H](N)C(=O)O)cc1; Phe(4-CH2NH2) = NCc1ccc(C[C@H](N)C(=O)O)cc1; Bip = N[C@@H](Cc1ccc(-c2ccccc2)cc1)C(=O)O; NMeF = CN[C@@H](Cc1ccccc1)C(=O)O; dTic = O=C(O)[C@H]1Cc2ccccc2CN1; Aad = N[C@@H](CCCC(=O)O)C(=O)O; NMeA = CN[C@@H](C)C(=O)O; Orn = NCCC[C@H](N)C(=O)O; Dab = NCC[C@H](N)C(=O)O; Sar = CNCC(=O)O

Target: T1, human PD-1 (Jurkat-PD-1 cells) / PE-labeled human PD-L1-Ig (Homo sapiens, UniProt Q15116)
T1 construct: expressed in transfected cells; host or cells: Jurkat cell line over-expressing human PD-1
Experiment: Jurkat-PD-1 Cell Binding High-Content Screening Assay (CBA); Jurkat hPD1-PDL1 assay
Settings: Jurkat cell line over-expressing human PD-1; PE-labeled PD-L1-Ig 20 nM final; compound incubated 2 hours at 37° C.; read-out: Jurkat HPD1-PDL1 IC50
Experimental: The ability of the compounds of formula (I) to bind to PD-1 was investigated using a Jurkat-PD-1 Cell Binding High-Content Screening Assay.
Jurkat-PD-1 Cell Binding High-Content Screening Assay (CBA)
Phycoerythrin (PE) was covalently linked to the Ig epitope tag of human PD-L1-Ig and fluorescently-labeled PD-L1-Ig was used for binding studies with a Jurkat cell line over-expressing human PD-1 (Jurkat-PD-1). Briefly, 8×10^3 Jurkat-hPD-1 cells were seeded into 384 well plates in 20 μL of DMEM supplemented with 10% fetal calf serum. 100 nL of compound was added to cells followed by incubation at 37° C. for 2 hours. Then, 5 μL of PE-labeled PD-L1-Ig (20 nM final), diluted in DMEM supplemented with 10% fetal calf serum. […] Data was collected and processed using a Cell Insight NXT High Content Imager and associated software.

T1 sequence (Q15116 25-288): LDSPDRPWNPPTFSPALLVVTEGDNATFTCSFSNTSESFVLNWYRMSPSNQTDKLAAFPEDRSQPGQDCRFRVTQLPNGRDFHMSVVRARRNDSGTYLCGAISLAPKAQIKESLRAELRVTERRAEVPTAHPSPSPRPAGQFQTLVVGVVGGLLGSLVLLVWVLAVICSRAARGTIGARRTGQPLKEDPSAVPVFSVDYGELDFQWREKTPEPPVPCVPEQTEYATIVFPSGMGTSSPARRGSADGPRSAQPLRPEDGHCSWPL

In order of rising IC50:
1. CC(C)C[C@@H]1NC(=O)[C@H](Cc2c[nH]c3ccccc23)NC(=O)[C@H](CC(=O)O)NC(=O)[C@H](Cc2ccc(O)cc2)NC(=O)[C@H](Cc2ccccc2)NC(=O)CSC[C@@H](C(=O)NCC(N)=O)NC(=O)[C@H](CO)NC(=O)[C@H](C(C)C)NC(=O)[C@H](CC(C)C)NC(=O)[C@H](CC(N)=O)NC(=O)[C@H]2CCCN2C(=O)[C@H](CCN)NC(=O)[C@H](C(C)C)NC(=O)[C@H](Cc2ccc(-c3ccccc3)cc2)NC1=O [Example 1413] ({CH2CO}-FYDWL[Bip]V[Dab][dP]NLVSCG-NH2; thioether N-14)  0.09 µM
2. CC(C)C[C@@H]1NC(=O)[C@H](Cc2c[nH]c3ccccc23)NC(=O)[C@H](CC(=O)O)NC(=O)[C@H](Cc2ccc(O)cc2)NC(=O)[C@H](Cc2ccccc2)NC(=O)CSC[C@@H](C(=O)NCC(N)=O)NC(=O)[C@H]([C@@H](C)O)NC(=O)[C@H](C(C)C)NC(=O)[C@H](CC(C)C)NC(=O)[C@H](CCN)NC(=O)[C@H]2CCCN2C(=O)[C@H](CCCN)NC(=O)[C@H](C(C)C)NC(=O)[C@H](Cc2ccc(-c3ccccc3)cc2)NC1=O [Example 1420] ({CH2CO}-FYDWL[Bip]V[Orn][dP][Dab]LVTCG-NH2; thioether N-14)  0.13 µM
3. CC(C)C[C@@H]1NC(=O)[C@H](CCCNC(=N)N)NC(=O)[C@H](Cc2ccccc2)N(C)C(=O)[C@H](C)N(C)C(=O)[C@H](CCCNC(=N)N)NC(=O)[C@H](Cc2ccc(-c3ccccc3)cc2)NC(=O)[C@H](C(C)C)NC(=O)[C@H](Cc2c[nH]c3ccccc23)NC(=O)[C@H](CC(=O)O)NC(=O)[C@H](Cc2ccc(CN)cc2)NC(=O)[C@H](Cc2ccccc2)NC(=O)CSC[C@@H](C(=O)NCC(N)=O)NC(=O)[C@H](CO)NC(=O)[C@H](C(C)C)NC1=O [Example 1277] ({CH2CO}-F[Phe(4-CH2NH2)]DWV[Bip]R[NMeA][NMeF]RLVSCG-NH2; thioether N-14)  0.14 µM
4. CC(C)C[C@@H]1NC(=O)[C@H](Cc2c[nH]c3ccccc23)NC(=O)[C@H](CC(=O)O)NC(=O)[C@H](Cc2ccc(O)cc2)NC(=O)[C@H](Cc2ccccc2)NC(=O)CSC[C@@H](C(=O)NCC(N)=O)NC(=O)[C@H](CO)NC(=O)[C@H](C(C)C)NC(=O)[C@H](CC(C)C)NC(=O)[C@H](CCC(N)=O)NC(=O)CN(C)C(=O)[C@H](C)N(C)C(=O)[C@H](C(C)C)NC(=O)[C@H](Cc2ccc(-c3ccccc3)cc2)NC1=O [Example 1072] ({CH2CO}-FYDWL[Bip]V[NMeA][Sar]QLVSCG-NH2; thioether N-14)  0.19 µM
5. CC(C)C[C@@H]1NC(=O)[C@H](Cc2c[nH]c3ccccc23)NC(=O)[C@H](CC(=O)O)NC(=O)[C@H](Cc2ccc(O)cc2)NC(=O)[C@H](Cc2ccccc2)NC(=O)CSC[C@@H](C(=O)N[C@@H](C)C(N)=O)NC(=O)[C@H](CO)NC(=O)[C@H](C(C)C)NC(=O)[C@H](CC(C)C)NC(=O)[C@H](CC(N)=O)NC(=O)CN(C)C(=O)[C@H](C)N(C)C(=O)[C@H](CCCC(=O)O)NC(=O)[C@H](Cc2ccc(-c3ccccc3)cc2)NC1=O [Example 1092] ({CH2CO}-FYDWL[Bip][Aad][NMeA][Sar]NLVSCA-NH2; thioether N-14)  0.26 µM
6. CC(C)C[C@@H]1NC(=O)[C@H](CCCN)NC(=O)[C@H]2Cc3ccccc3CN2C(=O)[C@H](C)N(C)C(=O)[C@H](CCCNC(=N)N)NC(=O)[C@H](Cc2ccc(-c3ccccc3)cc2)NC(=O)[C@H](C(C)C)NC(=O)[C@H](Cc2c[nH]c3ccccc23)NC(=O)[C@H](CC(=O)O)NC(=O)[C@H](Cc2ccc(O)cc2)NC(=O)[C@H](CC(N)=O)NC(=O)CSC[C@@H](C(=O)N[C@@H](C)C(N)=O)NC(=O)[C@H]([C@@H](C)O)NC(=O)[C@H](C(C)C)NC1=O [Example 1356] ({CH2CO}-NYDWV[Bip]R[NMeA][dTic][Orn]LVTCA-NH2; thioether N-14)  0.27 µM
7. CC(C)C[C@@H]1NC(=O)[C@H](CCCN)NC(=O)[C@H](Cc2ccccc2)N(C)C(=O)[C@H](C)N(C)C(=O)[C@H](CCCNC(=N)N)NC(=O)[C@H](Cc2ccc(-c3ccccc3)cc2)NC(=O)[C@H](C(C)C)NC(=O)[C@H](Cc2c[nH]c3ccccc23)NC(=O)[C@H](CC(=O)O)NC(=O)[C@H](Cc2ccc(O)cc2)NC(=O)[C@H](Cc2ccccc2)NC(=O)CSC[C@@H](C(=O)NCC(N)=O)NC(=O)[C@H](CO)NC(=O)[C@H](C(C)C)NC1=O [Example 1278] ({CH2CO}-FYDWV[Bip]R[NMeA][NMeF][Orn]LVSCG-NH2; thioether N-14)  0.31 µM
8. CC(C)C[C@@H]1NC(=O)[C@H](CCCNC(=N)N)NC(=O)[C@H](Cc2ccccc2)N(C)C(=O)[C@H](C)N(C)C(=O)[C@H](CCCNC(=N)N)NC(=O)[C@H](Cc2ccc(-c3ccccc3)cc2)NC(=O)[C@H](C(C)C)NC(=O)[C@H](Cc2c[nH]c3ccccc23)NC(=O)[C@H](CC(=O)O)NC(=O)[C@H](Cc2ccc(O)cc2)NC(=O)[C@H](Cc2ccccc2)NC(=O)CSC[C@@H](C(=O)N[C@@H](CCC(=O)O)C(N)=O)NC(=O)[C@H](CO)NC(=O)[C@H](C(C)C)NC1=O [Example 1105] ({CH2CO}-FYDWV[Bip]R[NMeA][NMeF]RLVSCE-NH2; thioether N-14)  0.33 µM
9. CC(C)C[C@@H]1NC(=O)[C@H](CC(N)=O)NC(=O)CN(C)C(=O)[C@H](C)N(C)C(=O)[C@H](C(C)C)NC(=O)[C@H](Cc2ccc(-c3ccccc3)cc2)NC(=O)[C@H](CC(C)C)NC(=O)[C@H](Cc2c[nH]c3ccccc23)NC(=O)[C@H](CC(=O)O)NC(=O)[C@H](Cc2ccc(O)cc2)NC(=O)[C@H](Cc2ccccc2)NC(=O)CSC[C@@H](C(=O)NCC(N)=O)NC(=O)[C@H](CO)NC(=O)[C@H](C)NC1=O [Example 1111] ({CH2CO}-FYDWL[Bip]V[NMeA][Sar]NLASCG-NH2; thioether N-14)  0.35 µM
10. CC(C)C[C@@H]1NC(=O)[C@H](CCCNC(=N)N)NC(=O)[C@H](Cc2ccccc2)N(C)C(=O)[C@H](C)N(C)C(=O)[C@H](CCCNC(=N)N)NC(=O)[C@H](Cc2ccc(-c3ccccc3)cc2)NC(=O)[C@H](C(C)C)NC(=O)[C@H](Cc2c[nH]c3ccccc23)NC(=O)[C@H](CC(=O)O)NC(=O)[C@H](Cc2ccc(O)cc2)NC(=O)[C@H](Cc2ccccc2)NC(=O)CSC[C@@H](C(=O)N[C@@H](C)C(N)=O)NC(=O)[C@H]([C@@H](C)O)NC(=O)[C@H](C(C)C)NC1=O [Example 1358] ({CH2CO}-FYDWV[Bip]R[NMeA][NMeF]RLVTCA-NH2; thioether N-14)  0.4 µM
11. CC(C)C[C@@H]1NC(=O)[C@H](CCCNC(=N)N)NC(=O)[C@H]2CCCN2C(=O)[C@H](C)N(C)C(=O)[C@H](CCCNC(=N)N)NC(=O)[C@H](Cc2ccc(-c3ccccc3)cc2)NC(=O)[C@H](C(C)C)NC(=O)[C@H](Cc2c[nH]c3ccccc23)NC(=O)[C@H](CC(=O)O)NC(=O)[C@H](Cc2ccc(O)cc2)NC(=O)[C@H](Cc2ccccc2)NC(=O)CSC[C@@H](C(=O)N[C@@H](C)C(N)=O)NC(=O)[C@H](CO)NC(=O)[C@H](C(C)C)NC1=O [Example 1122] ({CH2CO}-FYDWV[Bip]R[NMeA][dP]RLVSCA-NH2; thioether N-14)  0.43 µM
12. CC(C)C[C@@H]1NC(=O)[C@H](Cc2c[nH]c3ccccc23)NC(=O)[C@H](CC(=O)O)NC(=O)[C@H](Cc2ccc(O)cc2)NC(=O)[C@H](Cc2ccccc2)NC(=O)CSC[C@@H](C(=O)NCC(N)=O)NC(=O)[C@H](CC(N)=O)NC(=O)[C@H](C(C)C)NC(=O)[C@H](CC(C)C)NC(=O)[C@H](CC(N)=O)NC(=O)CN(C)C(=O)[C@H](C)N(C)C(=O)[C@H](C(C)C)NC(=O)[C@H](Cc2ccc(-c3ccccc3)cc2)NC1=O [Example 1228] ({CH2CO}-FYDWL[Bip]V[NMeA][Sar]NLVNCG-NH2; thioether N-14)  0.72 µM
13. CC[C@H](C)[C@@H]1NC(=O)[C@H](Cc2c[nH]c3ccccc23)NC(=O)[C@H](CC(=O)O)NC(=O)[C@H](Cc2ccc(O)cc2)NC(=O)[C@H](Cc2ccccc2)NC(=O)CSC[C@@H](C(=O)NCC(N)=O)NC(=O)[C@H](CO)NC(=O)[C@H](C(C)C)NC(=O)[C@H](CC(C)C)NC(=O)[C@H](CCCNC(=N)N)NC(=O)[C@H](Cc2ccccc2)N(C)C(=O)[C@H](C)N(C)C(=O)[C@H](CCCNC(=N)N)NC(=O)[C@H](Cc2ccc(-c3ccccc3)cc2)NC1=O [Example 1284] ({CH2CO}-FYDWI[Bip]R[NMeA][NMeF]RLVSCG-NH2; thioether N-14)  0.82 µM
14. CC(C)C[C@@H]1NC(=O)[C@H](CCCNC(=N)N)NC(=O)[C@H](Cc2ccccc2)N(C)C(=O)[C@@H](C)NC(=O)[C@H](CCCNC(=N)N)NC(=O)[C@H](Cc2ccc(-c3ccccc3)cc2)NC(=O)[C@H](C(C)C)NC(=O)[C@H](Cc2c[nH]c3ccccc23)NC(=O)[C@H](CC(=O)O)NC(=O)[C@H](Cc2ccc(O)cc2)NC(=O)[C@H](CC(N)=O)NC(=O)CSC[C@@H](C(=O)N[C@@H](C)C(N)=O)NC(=O)[C@H]([C@@H](C)O)NC(=O)[C@H](C(C)C)NC1=O [Example 1363] ({CH2CO}-NYDWV[Bip]R[dA][NMeF]RLVTCA-NH2; thioether N-14)  0.94 µM
15. CC(C)C[C@@H]1NC(=O)[C@H](Cc2c[nH]c3ccccc23)NC(=O)[C@H](CC(=O)O)NC(=O)[C@H](Cc2ccc(O)cc2)NC(=O)[C@H](Cc2ccc(C(N)=O)cc2)NC(=O)CSC[C@@H](C(=O)NCC(N)=O)NC(=O)[C@H](CO)NC(=O)[C@H](C(C)C)NC(=O)[C@H](CC(C)C)NC(=O)[C@H](CC(N)=O)NC(=O)CN(C)C(=O)[C@H](C)N(C)C(=O)[C@H](C(C)C)NC(=O)[C@H](Cc2ccc(-c3ccccc3)cc2)NC1=O [Example 1174] ({CH2CO}-[Phe(4-CONH2)]YDWL[Bip]V[NMeA][Sar]NLVSCG-NH2; thioether N-14)  0.97 µM
